Tests used:
[1] = system: tumor-infiltrating immune cells of CT26 tumors; test: FACS of tumor-infiltrating immune cells in CT26 tumors (Example 2); format: in vivo, BALB/c mice; details: FACS of tumors excised at day 17-18
Description: (§1) BALB/c mice were subcutaneously injected with CT26 cells at day 0 and then divided into four groups at day 7: (1) Compound 1 treatment, (50 mg/kg, i.p. qd), 5 days/week; (2) Isotype group, ip mlgG isotype at days 7, 10 and 14; (3) Anti-PD-1 group, administered i.p. at days 7, 10 and 14; and (4) Combination group, treated with Compound 1 and anti-PD-1 as group 1 and group 3. Tumor volumes were measured every 2 or 3 days. At day 17-18, tumors were excised, dissected, and used to make single cell suspensions. These tumor single cell suspensions were incubated with FC blocker (eBioscience) and then stained with antibodies on ice in the dark. Samples were acquired on a FACSCalibur, LSRII or LSRII yellow (BD Biosciences), and analyzed with FlowJo (Tree Star).

[2] = system: CT26 murine cancer cells; test: Growth of CT26 murine colon carcinoma tumors in BALB/C mice (Example 1); format: in vivo; details: 50 mg/kg once daily i.p. from day 7, after 30 days, vs untreated control (FIG. 1)
Description: Aliquots of cancerous cells are injected into the subscapular space of BALB/C mice to induce colon carcinoma. The tumors are allowed to grow for 7 days, when tumor volume is measured. Once a tumor has formed, drug treatment is initiated (50 mg/kg Compound 1, once daily, i.p. in 0.5% methylcellulose vehicle) and tumor growth is observed and recorded daily. Compounds 1 is shown below:
The mice were sacrificed at thirty days post-injection, and the tumors are isolated from the mice.

[3] = system: immune cells in the tumor microenvironment of CT26 tumors; test: Flow cytometry of immune cells in dissociated CT26 tumors (Example 1); format: in vivo, BALB/C mice; details: 50 mg/kg once daily i.p.; tumors isolated at thirty days post-injection; flow cytometry (FIG. 2)
Description: The tumors were then enzymatically dissociated into a single cell suspensions, stained with fluorophore-tagged antibodies and are analyzed by flow cytometry. Cells were sorted and analyzed for immune markers. […] In turn, it is believed this this allows the innate immune system to more efficiently target tumor cells, which is consistent with the results observed here (i.e., increased activation of T-cells in the tumor microenvironment).

[4] = system: CT26 xenograft tumors; test: Growth of CT26 xenograft tumors, Compound 1 alone or with anti-PD-1 (Example 2); format: in vivo, BALB/c mice; details: Compound 1 50 mg/kg i.p. qd 5 days/week from day 7; anti-PD-1 sub-effective dose i.p. days 7, 10 and 14; isotype group zero out of nine
Description: The effects of Compound 1, alone or combination with sub-effective doses of the checkpoint inhibitor, anti-PD-1, were assessed on the growth of CT26 xenograft tumors in BALB/c mice. Treatment-naïve tumor-bearing mice (i.e., isotype group) were compared with groups of mice receiving monotherapy of Compound 1 defined in Example 1, mice receiving a sub-effective dose of a checkpoint inhibitor (anti-PD-1 antibody), and mice receiving both Compound 1 and a sub-effective dose of anti-PD-1 antibody.
as §1
At the end of experiments, tumors were also weighed.

Compound: CN1C(=O)c2c(nn(Cc3ccc(-c4cccc(F)n4)cc3)c2Nc2ccccc2)N2C1=N[C@@H]1CCC[C@@H]12 [Compound 1]
- numbers of CD45+ tumor (infiltrating) macrophages [1]: significantly decreased numbers
- numbers of CD45+ tumor (infiltrating) monocytes [1]: significantly decreased numbers
- tumor growth [2]: significantly slowed tumor growth
- CD8 T-cells in the tumor microenvironment [3]: significant increases
- macrophage presence in the tumor microenvironment [3]: significant decrease
- monocytes in the tumor microenvironment [3]: significant increases
- mice showing tumor clearance (tumor volume smaller than 100 mm^3) [4]: one out of five
